From patent US20070185161A1, “Bicyclic substituted indole-derivative steroid hormone nuclear receptor modulators” (priority 2004, published 2007)

These compounds were tested against T1, human GR (glucocorticoid receptor) (Homo sapiens, UniProt P04150) (assay: Alternative Binding Assay Protocol (Method 2), GR). Settings: 3H-dexamethasone, 293-GR lysate, racemic mixture unless otherwise indicated.
T1 construct: expressed in transfected cells; host or cells: 293 cells
T1 sequence (P04150 1-777): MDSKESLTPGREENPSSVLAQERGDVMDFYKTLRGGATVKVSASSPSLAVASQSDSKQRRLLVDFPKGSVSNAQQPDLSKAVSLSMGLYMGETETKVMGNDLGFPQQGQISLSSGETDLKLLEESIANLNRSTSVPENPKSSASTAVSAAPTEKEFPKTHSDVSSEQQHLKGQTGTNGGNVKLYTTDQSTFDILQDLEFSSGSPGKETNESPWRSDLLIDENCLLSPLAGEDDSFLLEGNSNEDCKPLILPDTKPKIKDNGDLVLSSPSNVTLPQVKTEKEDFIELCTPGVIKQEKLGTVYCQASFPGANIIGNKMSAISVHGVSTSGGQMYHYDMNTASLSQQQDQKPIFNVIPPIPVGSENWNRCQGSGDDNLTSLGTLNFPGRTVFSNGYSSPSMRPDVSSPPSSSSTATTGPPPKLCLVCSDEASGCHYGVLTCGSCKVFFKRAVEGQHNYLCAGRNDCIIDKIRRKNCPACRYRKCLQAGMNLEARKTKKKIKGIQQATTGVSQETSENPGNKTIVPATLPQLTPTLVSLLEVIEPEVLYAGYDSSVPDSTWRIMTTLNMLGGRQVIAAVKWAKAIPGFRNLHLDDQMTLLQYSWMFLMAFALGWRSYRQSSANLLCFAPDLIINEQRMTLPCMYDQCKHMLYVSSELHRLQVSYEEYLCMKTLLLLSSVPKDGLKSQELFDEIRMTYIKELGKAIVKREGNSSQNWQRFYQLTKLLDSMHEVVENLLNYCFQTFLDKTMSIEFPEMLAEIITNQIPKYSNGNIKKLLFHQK
Procedure: Cell lysates from 293 cells overexpressing human GR (glucocorticoid receptor), AR (androgen receptor), MR (mineralocorticoid receptor) or PR (progesterone receptor) are used for competition binding assays to determine Ki values for test compounds. Briefly, competition binding assays are run in a buffer containing 20 mM Hepes, pH 7.6, 0.2 mM EDTA, 75 mM NaCl, 1.5 mM MgCl2, 20% glycerol, 20 mM sodium molybdate, 0.2 mM DTT, 20 ug/ml aprotinin and 20 ug/ml leupeptin, using either 0.3 nM ^3H-dexamethasone for GR binding, 0.36 nM ^3H-methyltrienolone for AR binding, 0.25 nM ^3H-aldosterone for MR binding, or 0.29 nM ^3H-methyltrienolone for PR binding, and either 20 ug 293-GR lysate, 22 ug 293-AR lysate, 20 ug 293-MR lysate or 40 ug 293-PR lysate per well. Competing compounds are added at various concentraions in half-log increments. Non-specific binding is determined in the presence of 500 nM dexamethasone for GR binding, 500 nM aldosterone for MR binding, or 500 nM methyltrienolone for AR and PR binding,. The binding reaction (140 μl) is incubated for overnight at […], then 70 μl of cold charcoal-dextran buffer (containing per 50 ml of assay buffer, 0.75 g of charcoal and 0.25 g of dextran) is added to each reaction. Plates are mixed 8 minutes on an orbital shaker at 4° C. Plates are then centrifuged at 3,000 rpm at 4° C. for 10 minutes. An aliquot of 120 μl of the mix is transferred to another 96-well plate and 175 μl of Wallac Optiphase “Hisafe 3” scintillation fluid is added to each well. Plates are sealed and shaken vigorously on an orbital shaker. After an incubation of 2 hrs, plates are read in a Wallac Microbeta counter. The data is used to calculate an IC50 and % Inhibition at 10 μM. The Kd for ^3H-dexamethasone for GR binding, ^3H-methyltrienolone for AR binding, ^3H-aldosterone for MR binding, or ^3H-methyltrienolone for PR binding, is determined by saturation binding. The IC50 values for compounds are converted to Ki using Cheng-Prusoff equation and the Kd determined by saturation binding assay.

| SMILES | Ki |
| --- | --- |
| CC1(c2c[nH]c3c(NS(C)(=O)=O)cccc23)CCc2cc(F)cc(F)c21 (racemic) [Example 22, N-[3-(5,7-Difluoro-1-methyl-indan-1-yl)-1H-indol-7-yl]-methanesulfonamide] | ≤ 500 nM |
| CC1(c2c[nH]c3c(NS(C)(=O)=O)cccc23)CCOc2cc(F)ccc21 (racemic) [Example 34, N-[3-(7-Fluoro-4-methyl-chroman-4-yl)-1H-indol-7-yl]-methanesulfonamide] | ≤ 500 nM |
| CCC1(c2c[nH]c3c(NS(C)(=O)=O)cccc23)CCOc2cc(F)ccc21 (racemic) [Example 35, N-[3-(4-Ethyl-7-fluoro-chroman-4-yl)-1H-indol-7-yl]-methanesulfonamide] | ≤ 500 nM |
| CCC1(c2c[nH]c3c(NS(C)(=O)=O)cccc23)CCOc2cc(F)cc(F)c21 (racemic) [Example 36, N-[3-(4-Ethyl-5,7-difluoro-chroman-4-yl)-1H-indol-7-yl]-methanesulfonamide] | ≤ 500 nM |
| CS(=O)(=O)Nc1cccc2c(C3(C4CC4)CCc4cc(F)ccc43)c[nH]c12 (racemic) [Example 39, N-[3-(1-Cyclopropyl-5-fluoro-indan-1-yl)-1H-indol-7-yl]-methanesulfonamide] | ≤ 500 nM |
| CS(=O)(=O)Nc1cccc2c(C3(CCCO)CCc4cc(F)ccc43)c[nH]c12 (racemic) [Example 40, N-{3-[5-Fluoro-1-(3-hydroxy-propyl)-indan-1-yl]-1H-indol-7-yl}-methanesulfonamide] | ≤ 500 nM |
| CC1(c2c[nH]c3c(NS(C)(=O)=O)cccc23)CCc2cc(F)cc(F)c21 (single isomer, unassigned) [Example 22A, N-[3-(5,7-Difluoro-1-methyl-indan-1-yl)-1H-indol-7-yl]-methanesulfonamide] | ≤ 500 nM |
| CC1(c2c[nH]c3c(NS(C)(=O)=O)cccc23)CCc2cc(F)cc(F)c21 (single isomer, unassigned) [Example 22B, N-[3-(5,7-Difluoro-1-methyl-indan-1-yl)-1H-indol-7-yl]-methanesulfonamide] | ≤ 500 nM |
| CC1(c2c[nH]c3c(NS(C)(=O)=O)cccc23)CCOc2cc(F)ccc21 (single isomer, unassigned) [Example 34A, N-[3-(7-Fluoro-4-methyl-chroman-4-yl)-1H-indol-7-yl]-methanesulfonamide] | ≤ 500 nM |
| CC1(c2c[nH]c3c(NS(C)(=O)=O)cccc23)CCOc2cc(F)ccc21 (single isomer, unassigned) [Example 34B, N-[3-(7-Fluoro-4-methyl-chroman-4-yl)-1H-indol-7-yl]-methanesulfonamide] | ≤ 500 nM |
| CCC1(c2c[nH]c3c(NS(C)(=O)=O)cccc23)CCOc2cc(F)ccc21 (single isomer, unassigned) [Example 35A, N-[3-(4-Ethyl-7-fluoro-chroman-4-yl)-1H-indol-7-yl]-methanesulfonamide] | ≤ 500 nM |
| CCC1(c2c[nH]c3c(NS(C)(=O)=O)cccc23)CCOc2cc(F)ccc21 (single isomer, unassigned) [Example 35B, N-[3-(4-Ethyl-7-fluoro-chroman-4-yl)-1H-indol-7-yl]-methanesulfonamide] | ≤ 500 nM |
| CCC1(c2c[nH]c3c(NS(C)(=O)=O)cccc23)CCOc2cc(F)cc(F)c21 (single isomer, unassigned) [Example 36A, N-[3-(4-Ethyl-5,7-difluoro-chroman-4-yl)-1H-indol-7-yl]-methanesulfonamide] | ≤ 500 nM |
| CCC1(c2c[nH]c3c(NS(C)(=O)=O)cccc23)CCOc2cc(F)cc(F)c21 (single isomer, unassigned) [Example 36B, N-[3-(4-Ethyl-5,7-difluoro-chroman-4-yl)-1H-indol-7-yl]-methanesulfonamide] | ≤ 500 nM |
| CS(=O)(=O)Nc1cccc2c(C3(C4CC4)CCc4cc(F)ccc43)c[nH]c12 (single isomer, unassigned) [Example 39A, N-[3-(1-Cyclopropyl-5-fluoro-indan-1-yl)-1H-indol-7-yl]-methanesulfonamide] | ≤ 500 nM |
| CS(=O)(=O)Nc1cccc2c(C3(C4CC4)CCc4cc(F)ccc43)c[nH]c12 (single isomer, unassigned) [Example 39B, N-[3-(1-Cyclopropyl-5-fluoro-indan-1-yl)-1H-indol-7-yl]-methanesulfonamide] | ≤ 500 nM |
| CS(=O)(=O)Nc1cccc2c(C3(CCCO)CCc4cc(F)ccc43)c[nH]c12 (single isomer, unassigned) [Example 40A, N-{3-[5-Fluoro-1-(3-hydroxy-propyl)-indan-1-yl]-1H-indol-7-yl}-methanesulfonamide] | ≤ 500 nM |
| CS(=O)(=O)Nc1cccc2c(C3(CCCO)CCc4cc(F)ccc43)c[nH]c12 (single isomer, unassigned) [Example 40B, N-{3-[5-Fluoro-1-(3-hydroxy-propyl)-indan-1-yl]-1H-indol-7-yl}-methanesulfonamide] | ≤ 500 nM |
| CCC1(c2c[nH]c3c([N+](=O)[O-])cccc23)CCc2cc(F)ccc21 (centres unmarked) [Example 2, 3-(1-Ethyl-5-fluoro-indan-1-yl)-7-nitro-1H-indole] | ≤ 500 nM |
| CCC1(c2cn(C)c3c(NS(C)(=O)=O)cccc23)CCc2cc(F)ccc21 (centres unmarked) [Example 5, N-[3-(1-Ethyl-5-fluoro-indan-1-yl)-1-methyl-1H-indol-7-yl]-methanesulfonamide] | ≤ 500 nM |
| CCC1(c2c[nH]c3c(N)cccc23)CCc2cc(F)ccc21 (centres unmarked) [Example 14, 3-(1-Ethyl-5-fluoro-indan-1-yl)-1H-indol-7-ylamine] | ≤ 1000 nM |
| CCC1(c2c[nH]c3c(NC(=O)OC)cccc23)CCc2cc(F)ccc21 (centres unmarked) [Example 15, [3-(1-Ethyl-5-fluoro-indan-1-yl)-1H-indol-7-yl]-carbamic acid methyl ester] | ≤ 500 nM |
| CCC1(c2c[nH]c3c(NC(C)=O)cccc23)CCc2cc(F)ccc21 (centres unmarked) [Example 16, N-[3-(1-ethyl-5-fluoro-indan-1-yl)-1H-indol-7-yl]-acetamide] | ≤ 500 nM |
| CCC1(c2c[nH]c3c(NS(=O)(=O)N(C)C)cccc23)CCc2cc(F)ccc21 (centres unmarked) [Example 17] | ≤ 500 nM |
| CCC1(c2c[nH]c3c(NS(=O)(=O)c4ccccc4)cccc23)CCc2cc(F)ccc21 (centres unmarked) [Example 18, N-[3-(1-ethyl-5-fluoro-indan-1-yl)-1H-indol-7-yl]-benzenesulfonamide] | ≤ 500 nM |
| CCC1(c2c[nH]c3c(NS(=O)(=O)CC)cccc23)CCc2cc(F)ccc21 (centres unmarked) [Example 19, Ethanesulfonic acid [3-(1-ethyl-5-fluoro-indan-1-yl)-1H-indol-7-yl]-amide] | ≤ 500 nM |
| CS(=O)(=O)Nc1cccc2c(C3(CCCI)CCc4cc(F)ccc43)c[nH]c12 (centres unmarked) [Example 41, N-{3-[5-Fluoro-1-(3-iodo-propyl)-indan-1-yl]-1H-indol-7-yl}-methanesulfonamide] | ≤ 500 nM |
| CNCCCC1(c2c[nH]c3c(NS(C)(=O)=O)cccc23)CCc2cc(F)ccc21 (centres unmarked) [Example 42, N-{3-[5-Fluoro-1-(3-methylamino-propyl)-indan-1-yl]-1H-indol-7-yl}-methanesulfonamide] | ≤ 500 nM |
| CS(=O)(=O)Nc1cccc2c(C3(CCCN4CCOCC4)CCc4cc(F)ccc43)c[nH]c12 (centres unmarked) [Example 44, N-{3-[5-Fluoro-1-(3-morpholin-4-yl-propyl)-indan-1-yl]-1H-indol-7-yl}-methanesulfonamide] | ≤ 500 nM |
